US9809578B2, “Pyrazolyl urea, thiourea, guanidine and cyanoguanidine compounds as trkA kinase inhibitors” (Array BioPharma Inc., priority 2012, dated 2017)

Columns and labels:
Assay type in all cases: biochemical
Conditions in all cases: 10 μM, ATP near Km
Abl2 = target: T1, Abl2 (Homo sapiens, UniProt P42684); test: KinaseProfiler Abl2
T1 construct: purchased Millipore (KinaseProfiler service)
Excerpt: (§1) The compound was run in duplicate at a concentration of ATP near the Km for each individual kinase according to Millipore's specifications.

AKT1 = target: T2, AKT1 (Homo sapiens, UniProt P31749); test: KinaseProfiler AKT1
T2 construct: purchased Millipore (KinaseProfiler service)
Excerpt: as §1

ARK5 = target: T3, ARK5 (Homo sapiens, UniProt O60285); test: KinaseProfiler ARK5
T3 construct: purchased Millipore (KinaseProfiler service)
Excerpt: as §1

BLK_m = target: T4, BLK_m (Mus musculus, UniProt P16277); test: KinaseProfiler BLK_m
T4 construct: purchased Millipore (KinaseProfiler service)
Excerpt: as §1

BrSK2 = target: T5, BrSK2 (Homo sapiens, UniProt Q8IWQ3); test: KinaseProfiler BrSK2
T5 construct: purchased Millipore (KinaseProfiler service)
Excerpt: as §1

CAMK1d = target: T6, CAMK1d (Homo sapiens, UniProt Q8IU85); test: KinaseProfiler CAMK1d
T6 construct: purchased Millipore (KinaseProfiler service)
Excerpt: as §1

CAMK2d = target: T7, CAMK2d (Homo sapiens, UniProt Q13557); test: KinaseProfiler CAMK2d
T7 construct: purchased Millipore (KinaseProfiler service)
Excerpt: as §1

CAMK4 = target: T8, CAMK4 (Homo sapiens, UniProt Q16566); test: KinaseProfiler CAMK4
T8 construct: purchased Millipore (KinaseProfiler service)
Excerpt: as §1

CDK2/cyclinE = target: T9, CDK2/cyclinE (Homo sapiens, UniProt P24941); test: KinaseProfiler CDK2/cyclinE
T9 construct: purchased Millipore, Inc. (KinaseProfiler service)
Excerpt: as §1

CDK7/cyclinH/MAT1 = target: T10, CDK7/cyclinH/MAT1 (Homo sapiens, UniProt P50613); test: KinaseProfiler CDK7/cyclinH/MAT1
T10 construct: purchased Millipore, Inc. (KinaseProfiler service)
Excerpt: as §1

CHK1 = target: T11, CHK1 (Homo sapiens, UniProt O14757); test: KinaseProfiler CHK1
T11 construct: purchased Millipore, Inc. (KinaseProfiler service)
Excerpt: as §1

CK1delta = target: T12, CK1delta (Homo sapiens, UniProt P48730); test: KinaseProfiler CK1delta
T12 construct: purchased Millipore, Inc. (KinaseProfiler service)
Excerpt: as §1

CK2 = target: T13, CK2 (Homo sapiens, UniProt P68400); test: KinaseProfiler CK2
T13 construct: purchased Millipore, Inc. (KinaseProfiler service)
Excerpt: as §1

c-RAF = target: T14, c-RAF (Homo sapiens, UniProt P04049, Y340D/Y341D); test: KinaseProfiler c-RAF
T14 construct: purchased Millipore, Inc. (KinaseProfiler service)
Excerpt: as §1

EGFR = target: T15, EGFR (Homo sapiens, UniProt P00533); test: KinaseProfiler EGFR
T15 construct: purchased Millipore, Inc. (KinaseProfiler service)
Excerpt: as §1

EphA3 = target: T16, EphA3 (Homo sapiens, UniProt P29320); test: KinaseProfiler EphA3
T16 construct: purchased Millipore, Inc. (KinaseProfiler service)
Excerpt: as §1

EphB1 = target: T17, EphB1 (Homo sapiens, UniProt P54762); test: KinaseProfiler EphB1
T17 construct: purchased Millipore, Inc. (KinaseProfiler service)
Excerpt: as §1

ERK2 = target: T18, ERK2 (Homo sapiens, UniProt P28482); test: KinaseProfiler ERK2
T18 construct: purchased Millipore, Inc. (KinaseProfiler service)
Excerpt: as §1

FAK = target: T19, FAK (Homo sapiens, UniProt Q05397); test: KinaseProfiler FAK
T19 construct: purchased Millipore, Inc. (KinaseProfiler service)
Excerpt: as §1

Fer = target: T20, Fer (Homo sapiens, UniProt P16591); test: KinaseProfiler Fer
T20 construct: purchased Millipore, Inc. (KinaseProfiler service)
Excerpt: as §1

Fes = target: T21, Fes (Homo sapiens, UniProt P07332); test: KinaseProfiler Fes
T21 construct: purchased Millipore, Inc. (KinaseProfiler service)
Excerpt: as §1

Haspin = target: T22, Haspin (Homo sapiens, UniProt Q8TF76); test: KinaseProfiler Haspin
T22 construct: purchased Millipore, Inc. (KinaseProfiler service)
Excerpt: as §1

HIPK3 = target: T23, HIPK3 (Homo sapiens, UniProt Q9H422); test: KinaseProfiler HIPK3
T23 construct: purchased Millipore, Inc. (KinaseProfiler service)
Excerpt: as §1

ITK = target: T24, ITK (Homo sapiens, UniProt Q08881); test: KinaseProfiler ITK
T24 construct: purchased Millipore, Inc. (KinaseProfiler service)
Excerpt: as §1

JNK1alpha1 = target: T25, JNK1alpha1 (Homo sapiens, UniProt P45983); test: KinaseProfiler JNK1alpha1
T25 construct: purchased Millipore, Inc. (KinaseProfiler service)
Excerpt: as §1

JNK2alpha2 = target: T26, JNK2alpha2 (Homo sapiens, UniProt P45984); test: KinaseProfiler JNK2alpha2
T26 construct: purchased Millipore, Inc. (KinaseProfiler service)
Excerpt: as §1

MAPKAP-K5 = target: T27, MAPKAP-K5 (Homo sapiens, UniProt Q8IW41); test: KinaseProfiler MAPKAP-K5
T27 construct: purchased Millipore, Inc. (KinaseProfiler service)
Excerpt: as §1

MLK1 = target: T28, MLK1 (Homo sapiens, UniProt P80192); test: KinaseProfiler MLK1
T28 construct: purchased Millipore, Inc. (KinaseProfiler service)
Excerpt: as §1

MRCKalpha = target: T29, MRCKalpha (Homo sapiens, UniProt Q5VT25); test: KinaseProfiler MRCKalpha
T29 construct: purchased Millipore, Inc. (KinaseProfiler service)
Excerpt: as §1

MSSK1 = target: T30, MSSK1 (Homo sapiens, UniProt Q9UPE1); test: KinaseProfiler MSSK1
T30 construct: purchased Millipore, Inc. (KinaseProfiler service)
Excerpt: as §1

p38alpha = target: T31, p38alpha (Homo sapiens, UniProt Q16539); test: KinaseProfiler p38alpha
T31 construct: purchased Millipore, Inc. (KinaseProfiler service)
Excerpt: as §1

p70S6K = target: T32, p70S6K (Homo sapiens, UniProt P23443); test: KinaseProfiler p70S6K
T32 construct: purchased Millipore, Inc. (KinaseProfiler service)
Excerpt: as §1

PKCdelta = target: T33, PKCdelta (Homo sapiens, UniProt Q05655); test: KinaseProfiler PKCdelta
T33 construct: purchased Millipore, Inc. (KinaseProfiler service)
Excerpt: as §1

PKCzeta = target: T34, PKCzeta (Homo sapiens, UniProt Q05513); test: KinaseProfiler PKCzeta
T34 construct: purchased Millipore, Inc. (KinaseProfiler service)
Excerpt: as §1

PRK2 = target: T35, PRK2 (Homo sapiens, UniProt Q16513); test: KinaseProfiler PRK2
T35 construct: purchased Millipore, Inc. (KinaseProfiler service)
Excerpt: as §1

ROCK-I = target: T36, ROCK-I (Homo sapiens, UniProt Q13464); test: KinaseProfiler ROCK-I
T36 construct: purchased Millipore, Inc. (KinaseProfiler service)
Excerpt: as §1

ROCK-II = target: T37, ROCK-II (Homo sapiens, UniProt O75116); test: KinaseProfiler ROCK-II
T37 construct: purchased Millipore, Inc. (KinaseProfiler service)
Excerpt: as §1

SGK3 = target: T38, SGK3 (Homo sapiens, UniProt Q96BR1); test: KinaseProfiler SGK3
T38 construct: purchased Millipore, Inc. (KinaseProfiler service)
Excerpt: as §1

SRPK1 = target: T39, SRPK1 (Homo sapiens, UniProt Q96SB4); test: KinaseProfiler SRPK1
T39 construct: purchased Millipore, Inc. (KinaseProfiler service)
Excerpt: as §1

TEC Activated = target: T40, TEC Activated (Homo sapiens, UniProt P42680); test: KinaseProfiler TEC Activated
T40 construct: purchased Millipore, Inc. (KinaseProfiler service)
Excerpt: as §1

TSSK1 = target: T41, TSSK1 (Homo sapiens, UniProt Q9BXA7); test: KinaseProfiler TSSK1
T41 construct: purchased Millipore, Inc. (KinaseProfiler service)
Excerpt: as §1

TSSK2 = target: T42, TSSK2 (Homo sapiens, UniProt Q96PF2); test: KinaseProfiler TSSK2
T42 construct: purchased Millipore, Inc. (KinaseProfiler service)
Excerpt: as §1

ULK2 = target: T43, ULK2 (Homo sapiens, UniProt Q8IYT8); test: KinaseProfiler ULK2
T43 construct: purchased Millipore, Inc. (KinaseProfiler service)
Excerpt: as §1

T39 sequence (Q96SB4 whole entry): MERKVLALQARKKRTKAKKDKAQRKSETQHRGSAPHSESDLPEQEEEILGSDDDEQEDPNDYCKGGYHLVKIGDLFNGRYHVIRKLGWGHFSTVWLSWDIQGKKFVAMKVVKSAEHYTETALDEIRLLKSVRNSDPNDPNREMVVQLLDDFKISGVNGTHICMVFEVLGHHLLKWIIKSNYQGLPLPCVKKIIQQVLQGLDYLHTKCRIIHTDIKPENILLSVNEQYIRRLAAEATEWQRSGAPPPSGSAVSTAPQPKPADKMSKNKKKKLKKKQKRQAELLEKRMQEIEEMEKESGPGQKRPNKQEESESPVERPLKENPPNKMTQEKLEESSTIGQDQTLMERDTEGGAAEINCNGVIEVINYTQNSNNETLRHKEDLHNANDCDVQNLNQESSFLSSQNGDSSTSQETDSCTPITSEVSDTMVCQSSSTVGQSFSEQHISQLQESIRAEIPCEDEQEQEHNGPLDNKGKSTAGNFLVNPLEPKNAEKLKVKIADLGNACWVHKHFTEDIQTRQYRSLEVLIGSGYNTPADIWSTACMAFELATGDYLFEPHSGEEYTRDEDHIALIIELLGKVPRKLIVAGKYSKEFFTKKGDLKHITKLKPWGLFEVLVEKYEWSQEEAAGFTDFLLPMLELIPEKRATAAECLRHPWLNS
T2 sequence (P31749 whole entry): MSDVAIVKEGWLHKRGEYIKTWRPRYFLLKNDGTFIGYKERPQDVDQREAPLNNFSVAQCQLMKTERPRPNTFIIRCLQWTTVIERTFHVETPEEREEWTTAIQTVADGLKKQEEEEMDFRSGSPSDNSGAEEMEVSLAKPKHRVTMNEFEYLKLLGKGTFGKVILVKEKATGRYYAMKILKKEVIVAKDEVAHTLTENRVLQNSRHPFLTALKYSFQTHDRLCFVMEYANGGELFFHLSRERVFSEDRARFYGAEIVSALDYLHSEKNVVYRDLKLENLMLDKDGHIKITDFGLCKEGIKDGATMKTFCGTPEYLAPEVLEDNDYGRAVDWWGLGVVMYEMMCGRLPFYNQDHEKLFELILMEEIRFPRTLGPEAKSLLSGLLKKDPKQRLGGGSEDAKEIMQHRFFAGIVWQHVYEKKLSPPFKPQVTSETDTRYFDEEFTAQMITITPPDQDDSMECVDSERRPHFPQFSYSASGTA
T15 sequence (P00533 25-1210): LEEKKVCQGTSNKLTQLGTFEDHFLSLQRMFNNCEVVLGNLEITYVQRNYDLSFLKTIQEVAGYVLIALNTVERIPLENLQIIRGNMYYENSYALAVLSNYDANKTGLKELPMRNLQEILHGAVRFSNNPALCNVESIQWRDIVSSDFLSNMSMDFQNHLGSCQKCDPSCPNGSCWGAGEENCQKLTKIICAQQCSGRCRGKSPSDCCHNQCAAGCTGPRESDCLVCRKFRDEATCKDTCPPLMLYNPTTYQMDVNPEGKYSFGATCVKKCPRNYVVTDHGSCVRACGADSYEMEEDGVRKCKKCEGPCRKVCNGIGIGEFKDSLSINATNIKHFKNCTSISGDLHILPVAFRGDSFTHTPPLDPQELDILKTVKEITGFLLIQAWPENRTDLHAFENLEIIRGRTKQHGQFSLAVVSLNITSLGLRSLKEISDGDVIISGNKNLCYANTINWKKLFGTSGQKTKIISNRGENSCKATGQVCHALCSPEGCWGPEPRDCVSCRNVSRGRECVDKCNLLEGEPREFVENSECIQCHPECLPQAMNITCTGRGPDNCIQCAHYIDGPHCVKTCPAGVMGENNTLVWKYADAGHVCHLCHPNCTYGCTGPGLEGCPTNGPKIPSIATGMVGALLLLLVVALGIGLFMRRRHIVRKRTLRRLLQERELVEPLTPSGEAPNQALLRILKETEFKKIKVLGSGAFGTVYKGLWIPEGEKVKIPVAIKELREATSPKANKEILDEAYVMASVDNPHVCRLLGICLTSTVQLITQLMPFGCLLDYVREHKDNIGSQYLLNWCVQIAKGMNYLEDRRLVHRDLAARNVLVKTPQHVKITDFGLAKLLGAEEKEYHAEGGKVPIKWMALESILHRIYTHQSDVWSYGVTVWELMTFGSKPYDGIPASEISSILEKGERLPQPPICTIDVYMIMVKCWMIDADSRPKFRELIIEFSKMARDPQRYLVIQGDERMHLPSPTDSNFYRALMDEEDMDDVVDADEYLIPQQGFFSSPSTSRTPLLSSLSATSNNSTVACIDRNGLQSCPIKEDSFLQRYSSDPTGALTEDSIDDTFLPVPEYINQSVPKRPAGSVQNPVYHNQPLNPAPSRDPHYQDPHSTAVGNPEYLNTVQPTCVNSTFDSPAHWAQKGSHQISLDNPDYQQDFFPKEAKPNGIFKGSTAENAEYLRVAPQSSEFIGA
T27 sequence (Q8IW41 whole entry): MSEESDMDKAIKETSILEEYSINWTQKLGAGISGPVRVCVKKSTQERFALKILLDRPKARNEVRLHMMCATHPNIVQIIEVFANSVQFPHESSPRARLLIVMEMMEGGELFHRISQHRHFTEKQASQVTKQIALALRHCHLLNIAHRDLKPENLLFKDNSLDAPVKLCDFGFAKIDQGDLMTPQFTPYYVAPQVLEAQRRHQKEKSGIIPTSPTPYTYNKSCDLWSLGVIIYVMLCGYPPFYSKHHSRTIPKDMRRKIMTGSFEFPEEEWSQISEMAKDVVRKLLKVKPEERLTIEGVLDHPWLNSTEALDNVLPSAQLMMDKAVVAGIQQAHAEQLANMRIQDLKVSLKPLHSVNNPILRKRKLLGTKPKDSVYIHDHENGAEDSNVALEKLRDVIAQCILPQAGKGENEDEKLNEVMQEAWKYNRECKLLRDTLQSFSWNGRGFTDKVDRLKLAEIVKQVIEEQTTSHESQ
T13 sequence (P68400 whole entry): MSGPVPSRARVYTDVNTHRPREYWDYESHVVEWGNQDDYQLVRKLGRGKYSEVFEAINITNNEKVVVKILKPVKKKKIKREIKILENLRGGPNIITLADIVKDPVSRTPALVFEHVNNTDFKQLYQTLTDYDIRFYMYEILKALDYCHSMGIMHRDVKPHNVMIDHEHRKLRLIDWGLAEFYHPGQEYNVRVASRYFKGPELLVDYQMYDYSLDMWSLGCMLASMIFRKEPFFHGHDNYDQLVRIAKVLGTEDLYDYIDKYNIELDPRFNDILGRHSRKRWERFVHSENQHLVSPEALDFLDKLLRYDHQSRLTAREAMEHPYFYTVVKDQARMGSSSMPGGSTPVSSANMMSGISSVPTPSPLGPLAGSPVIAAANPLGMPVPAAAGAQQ
T13 sequence (P67870 whole entry partner): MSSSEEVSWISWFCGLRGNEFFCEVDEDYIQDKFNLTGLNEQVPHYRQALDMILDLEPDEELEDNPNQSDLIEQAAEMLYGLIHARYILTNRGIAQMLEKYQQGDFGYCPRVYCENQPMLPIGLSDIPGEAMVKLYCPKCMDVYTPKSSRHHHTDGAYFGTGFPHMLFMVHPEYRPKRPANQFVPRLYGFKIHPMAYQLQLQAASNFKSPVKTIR
T5 sequence (Q8IWQ3 whole entry): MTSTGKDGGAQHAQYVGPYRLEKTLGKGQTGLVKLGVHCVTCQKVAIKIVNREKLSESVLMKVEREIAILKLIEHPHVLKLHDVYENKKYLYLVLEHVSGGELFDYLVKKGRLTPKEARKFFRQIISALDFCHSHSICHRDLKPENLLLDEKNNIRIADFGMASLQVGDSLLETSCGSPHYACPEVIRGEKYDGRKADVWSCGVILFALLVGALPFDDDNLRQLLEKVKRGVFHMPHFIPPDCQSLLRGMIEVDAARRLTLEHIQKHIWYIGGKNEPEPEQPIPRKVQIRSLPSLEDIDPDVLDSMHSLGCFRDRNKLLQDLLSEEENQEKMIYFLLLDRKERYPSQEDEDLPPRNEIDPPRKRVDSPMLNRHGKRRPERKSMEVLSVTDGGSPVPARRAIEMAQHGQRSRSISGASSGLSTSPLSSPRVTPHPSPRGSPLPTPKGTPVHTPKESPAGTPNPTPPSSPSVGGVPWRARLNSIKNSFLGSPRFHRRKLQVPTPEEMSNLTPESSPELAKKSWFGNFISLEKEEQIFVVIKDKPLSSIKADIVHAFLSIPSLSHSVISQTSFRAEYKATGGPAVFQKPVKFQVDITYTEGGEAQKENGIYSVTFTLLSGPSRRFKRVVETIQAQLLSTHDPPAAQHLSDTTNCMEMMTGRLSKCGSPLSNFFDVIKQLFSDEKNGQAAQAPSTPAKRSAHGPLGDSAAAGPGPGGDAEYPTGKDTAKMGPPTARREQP
T25 sequence (P45983 1-384 isoform P45983-2): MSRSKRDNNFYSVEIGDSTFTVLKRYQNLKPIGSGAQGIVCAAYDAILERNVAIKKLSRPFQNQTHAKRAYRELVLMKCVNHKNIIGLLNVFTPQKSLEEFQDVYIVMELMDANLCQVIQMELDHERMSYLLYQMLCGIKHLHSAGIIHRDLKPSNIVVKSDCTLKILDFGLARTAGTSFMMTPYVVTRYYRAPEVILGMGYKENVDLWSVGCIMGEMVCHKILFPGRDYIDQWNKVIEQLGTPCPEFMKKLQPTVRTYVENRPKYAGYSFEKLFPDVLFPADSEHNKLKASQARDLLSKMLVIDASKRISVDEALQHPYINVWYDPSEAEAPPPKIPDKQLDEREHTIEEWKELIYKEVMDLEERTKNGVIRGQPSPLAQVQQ
T4 sequence (P16277 whole entry): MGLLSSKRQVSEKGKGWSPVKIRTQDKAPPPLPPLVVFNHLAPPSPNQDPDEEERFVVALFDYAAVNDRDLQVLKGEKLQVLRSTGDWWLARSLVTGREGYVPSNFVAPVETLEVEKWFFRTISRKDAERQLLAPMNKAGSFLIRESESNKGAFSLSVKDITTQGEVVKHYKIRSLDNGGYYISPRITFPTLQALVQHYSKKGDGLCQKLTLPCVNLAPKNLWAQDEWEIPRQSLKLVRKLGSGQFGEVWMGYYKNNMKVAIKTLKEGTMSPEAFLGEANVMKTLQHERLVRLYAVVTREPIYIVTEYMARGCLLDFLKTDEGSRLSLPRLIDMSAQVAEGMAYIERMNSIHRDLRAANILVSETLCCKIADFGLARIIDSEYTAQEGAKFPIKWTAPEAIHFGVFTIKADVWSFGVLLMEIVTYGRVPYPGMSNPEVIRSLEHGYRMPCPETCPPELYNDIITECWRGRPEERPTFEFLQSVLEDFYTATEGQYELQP

## Cc1c(-c2cnn(C)c2)nn(-c2ccccc2)c1NC(=O)Nc1cc(C(F)(F)F)nn1-c1ccccc1 [Example 3, 1-(1′,4-dimethyl-1-phenyl-1H,1′H-[3,4′-bipyrazol]-5-yl)-3-(1-phenyl-3-(trifluoromethyl)-1H-pyrazol-5-yl)urea]
Abl2
  Avg POC: 148.5 POC
AKT1
  Avg POC: 103.5 POC
ARK5
  Avg POC: 92.5 POC
BLK_m
  Avg POC: 108.5 POC
BrSK2
  Avg POC: 135 POC
CAMK1d
  Avg POC: 138 POC
CAMK2d
  Avg POC: 131 POC
CAMK4
  Avg POC: 147.5 POC
CDK2/cyclinE
  Avg POC: 106.5 POC
CDK7/cyclinH/MAT1
  Avg POC: 120.5 POC
CHK1
  Avg POC: 108 POC
CK1delta
  Avg POC: 141 POC
CK2
  Avg POC: 96.5 POC
c-RAF
  Avg POC: 94.5 POC
EGFR
  Avg POC: 97.5 POC
EphA3
  Avg POC: 128.5 POC
EphB1
  Avg POC: 122 POC
ERK2
  Avg POC: 116 POC
FAK
  Avg POC: 105.5 POC
Fer
  Avg POC: 92.5 POC
Fes
  Avg POC: 123 POC
Haspin
  Avg POC: 121 POC
HIPK3
  Avg POC: 109.5 POC
ITK
  Avg POC: 128 POC
JNK1alpha1
  Avg POC: 111.5 POC
JNK2alpha2
  Avg POC: 99.5 POC
MAPKAP-K5
  Avg POC: 108.5 POC
MLK1
  Avg POC: 100.5 POC
MRCKalpha
  Avg POC: 172.5 POC
MSSK1
  Avg POC: 140 POC
p38alpha
  Avg POC: 93 POC
p70S6K
  Avg POC: 273.5 POC
PKCdelta
  Avg POC: 98.5 POC
PKCzeta
  Avg POC: 103 POC
PRK2
  Avg POC: 106.5 POC
ROCK-I
  Avg POC: 115 POC
ROCK-II
  Avg POC: 110 POC
SGK3
  Avg POC: 133 POC
SRPK1
  Avg POC: 111 POC
TEC Activated
  Avg POC: 144.5 POC
TSSK1
  Avg POC: 83.5 POC
TSSK2
  Avg POC: 132.5 POC
ULK2
  Avg POC: 98 POC
